According to patent US20250296963A1, “PEPTIDE HAVING ANTIMICROBIAL ACTIVITY” (priority 2022, published 2025):
Converted amounts (≈) assume the structure as drawn. Where two headings read alike, the source gives them in different places. Where no end group is shown, it is not given here.

How the values were obtained:
Format in all cases: cell-based
[1] = tested on: C. albicans; assay: Peptide stability in bodily fluids (sheep blood, urine), MIC against C. albicans; conditions: Candida albicans
Description: In vitro experiments were conducted to test the behavior of the peptides as disclosed herein in blood, against C. albicans. C. albicans isolates from human blood were used (DSMZ 6569). The peptide according to the SEQ ID N° 1 was adjusted to a concentration of 1 mg/ml and mixed with sheep blood in equal parts. This mixture was incubated overnight at 30° C. To remove solid parts of the blood, the mixture was centrifuged and the obtained plasma supernatant was used for MICs.
In vitro experiments were conducted to test the behavior of the peptides as disclosed herein in urine, against C. albicans. The peptide according to the SEQ ID N° 1 was adjusted to a concentration of 1 mg/ml and mixed with synthetic urine or human urine in equal parts. These mixtures were incubated overnight at 30° C. To remove solid parts of the urine, the mixture was centrifuged and the obtained supernatant was used for MICs.

[2] = tested on: Mycosphaerella pinodes; assay: microbe, parasite or virus in culture
Description: (§1) The antimicrobial potential of the peptides described herein was compared with the activity of two other AMPs, TcAMP1 and TcAMP2 as discussed in WO1998027805, and antibiotics or fungicides. Comparative MIC assays were carried out against several bacterial and fungal species (Table 1).
(§2) Peptides according to SEQ ID N° 1, SEQ ID N° 2, SEQ ID N° 4, SEQ ID N° 6, and SEQ ID N° 7 were serially diluted in order to create a concentration sequence ranging from 0.39 μg/ml to […].
(§3) Pantoea, Staphylococcus, and Listeria were cultured in Trypticase Soy Broth (TSY) medium consisting of 1.7% casein peptone, 0.3% soy peptone, 0.25% glucose, 0.5% NaCl, 0.25% K2HPO4 and optionally 1.5% agar. Candida cells were cultured in Yeast Extract Peptone Dextrose (YPD) broth medium consisting of 1% yeast extract, 2% peptone, 2% glucose, and optionally 2% agar. Ceratocystis, Botrytis, Leptosphaeria, Mycosphaerella, Sclerotinia, and Verticillium were cultured in Potato Dextrose Agar (PDA) medium consisting of 2.4% Difco pre-mix broth and optionally 1.5% agar.
(§4) For the MIC assay bacteria and fungi were grown on agar plates with their respective media. Pre-cultures were prepared by inoculating either single bacterial colonies or small pieces of fungi in 5 ml of the respective liquid medium. The optical density (OD) at 600 nm was measured after one to five days and adjusted to an OD600 of 1. This cell suspension was used to prepare 1:500 dilutions, corresponding to approximately 2×10^6 microbial cells per ml.
(§5) To evaluate MICs, 96-well plates were prepared with the test antimicrobial peptides. Each well contained 100 μl microbial cell culture, 90 μl culture medium, and 10 μl peptide or control at the corresponding dilution. The plates were incubated overnight (ON) at the optimal growth temperature for each tested organism (Table 1). Results were visually evaluated and MICs determined based on growth or no-growth.
(§6) MIC assays were conducted in at least two independent replicates and with different peptide starting concentrations.

[3] = tested on: Verticillium dahliae; assay: microbe, parasite or virus in culture
Description: as §1, §2, §3, §4, §5, §6

[4] = tested on: Sclerotinia sclerotiorum; assay: microbe, parasite or virus in culture
Description: as §1, §2, §3, §4, §5, §6

[5] = tested on: Candida albicans; assay: microbe, parasite or virus in culture
Description: as §1, §2, §3, §4, §5, §6

[6] = tested on: Botrytis cinerea; assay: microbe, parasite or virus in culture
Description: as §1, §2, §3, §4, §5, §6

[7] = tested on: Leptosphaeria maculans; assay: microbe, parasite or virus in culture
Description: as §1, §2, §3, §4, §5, §6

[8] = tested on: Ceratosystis paradoxa; assay: organism not typed
Description: as §1, §2, §3, §4, §5, §6

[9] = tested on: Staphylococcus aureus MRSA; assay: microbe, parasite or virus in culture
Description: as §1, §2, §3, §4, §5, §6

[10] = tested on: Listeria monocytogenes; assay: microbe, parasite or virus in culture
Description: as §1, §2, §3, §4, §5, §6

[11] = tested on: Listeria monocytogenes; assay: Cow milk assay, MIC against Listeria monocytogenes
Description: In vitro experiments were conducted to test the behavior of the peptides as disclosed herein in 3.5% fat cow milk, against Listeria monocytogenes. The peptide according to the SEQ ID N° 1 was adjusted to a concentration of 1 mg/ml and mixed with cow milk in equal parts. This mixture was incubated overnight at 37° C. To remove solid parts of the milk, the mixture was centrifuged and the obtained supernatant was used for MICs.

[12] = tested on: E. coli; assay: MIC assay, E. coli
Description: as §1, §2, §4, §5, §6

[13] = tested on: Pantoea agglomerans
Description: as §1, §2, §3, §4, §5, §6

[14] = tested on: several bacterial and fungal species; assay: Comparative MIC assays, all tested organisms; conditions: bacterial species of Table 3, all tested species
Description: as §1, §2, §3
For the MIC assay bacteria and fungi were grown on agar plates with their respective media. […] The optical density (OD) at 600 nm was measured after one to five days and adjusted to an OD600 of 1. […]
To evaluate MICs, 96-well plates were prepared with the test antimicrobial peptides. […] Results were visually evaluated and MICs determined based on growth or no-growth. […]

[15] = tested on: Erwinia amylovora; assay: MIC assay in soil slurry
Description: In vitro experiments were conducted to test the behavior of the peptides as disclosed herein in soil slurry, against Erwinia amylovora. Soil slurry was generated by mixing 5 g soil in 20 ml water. This mixture was incubated for 1 h at an overhead shaker. The solid parts were removed by centrifugation and the obtained supernatant, referred to as soil slurry, was used for the MIC assay. Equal volumes of the peptide according to SEQ ID N°1 (8 mg/ml) and soil slurry were mixed and incubated overnight at 28° C. The mixture was used for MIC against Erwinia amylovora.

[16] = Staphylococcus aureus MRSA DSM 11729, TSY, 37° C., overnight
[17] = Listeria monocytogenes DSM 102976, TSY, 37° C., overnight
[18] = Pantoea agglomerans JUB-CC-3253, TSY, 37° C., overnight
[19] = Mycosphaerella pinodes DSMZ 62763, PDA, 30° C., overnight
[20] = Verticillium dahliae SF 76, PDA, 28° C., overnight
[21] = Sclerotinia sclerotiorum SF 79, PDA, 18° C., overnight
[22] = Candida albicans DSM 1386, YPD, 30° C., overnight
[23] = Botrytis cinerea DSMZ 877, PDA, 24° C., overnight
[24] = Leptosphaeria maculans SF 70, PDA, 18° C., overnight
[25] = Ceratosystis paradoxa DSMZ 63054, PDA, 18° C., overnight

## CC[C@H](C)C[C@H](C)CCCCCCCCC(=O)N[C@H]1C[C@@H](O)[C@@H](NCCN)NC(=O)[C@@H]2[C@@H](O)CCN2C(=O)[C@H]([C@H](O)CCN)NC(=O)[C@H]([C@H](O)[C@@H](O)c2ccc(O)cc2)NC(=O)[C@@H]2C[C@@H](O)CN2C(=O)[C@H]([C@@H](C)O)NC1=O [Caspofungin, caspofungin]
[1]; read-out: Minimal inhibitory concentration
  MIC: 0.5 µg/mL (≈ 0.457 µM)

## Clc1ccccc1C(c1ccccc1)(c1ccccc1)n1ccnc1 [Clotrimazole]
[2]; Didymella pinodes, DSMZ62763, Mycosphaerella pinodes DSMZ 62763, PDA, 30° C., overnight, read-out: Minimal inhibitory concentration
  MIC: 3.1 µg/mL (≈ 8.99 µM)
[3]; Verticillium dahliae SF 76, PDA, 28° C., overnight, read-out: Minimal inhibitory concentration
  MIC: 1.56 µg/mL (≈ 4.52 µM)
[4]; Sclerotinia sclerotiorum SF 79, PDA, 18° C., overnight, read-out: Minimal inhibitory concentration
  MIC: 25 µg/mL (≈ 72.5 µM)
[5]; DSM1386, Candida albicans DSM 1386, YPD, 30° C., overnight, read-out: Minimal inhibitory concentration
  MIC: 3.1 µg/mL (≈ 8.99 µM)
[6]; DSMZ877, Botrytis cinerea DSMZ 877, PDA, 24° C., overnight, read-out: Minimal inhibitory concentration
  MIC: 6.25 µg/mL (≈ 18.1 µM)
[7]; Plenodomus lingam, Leptosphaeria maculans SF 70, PDA, 18° C., overnight, read-out: Minimal inhibitory concentration
  MIC: 0.4 µg/mL (≈ 1.16 µM)
[8]; Ceratosystis paradoxa DSMZ 63054, PDA, 18° C., overnight, read-out: Minimal inhibitory concentration
  MIC: 0.4 µg/mL (≈ 1.16 µM)

## [H]/N=C(/N)N[C@H]1[C@H](O)[C@@H](O)[C@H](O[C@@H]2O[C@@H](C)[C@](O)(C=O)[C@H]2O[C@@H]2O[C@@H](CO)[C@H](O)[C@@H](O)[C@@H]2NC)[C@@H](N/C(N)=N\[H])[C@@H]1O [Streptomycin]
[9]; DSM 11729 / MRSA, Staphylococcus aureus MRSA DSM 11729, TSY, 37° C., overnight, read-out: Minimal inhibitory concentration
  MIC: > 125 µg/mL
[10]; DSM102976, Listeria monocytogenes DSM 102976, TSY, 37° C., overnight, read-out: Minimal inhibitory concentration
  MIC: 7.8 µg/mL (≈ 13.4 µM)

## CN(C)[C@@H]1C(O)=C(C(N)=O)C(=O)[C@@]2(O)C(O)=C3C(=O)c4c(O)cccc4[C@@](C)(O)[C@H]3C[C@@H]12 [Tetracycline, tetracycline]
[11]; control, milk-free (and reference drug), read-out: Minimal inhibitory concentration
  MIC: 1.6 µg/mL (≈ 3.6 µM)

## Gentamycin
[9]; [16]
  Minimal inhibitory concentration: 0.8 µg/mL
[10]; [17]
  Minimal inhibitory concentration: 0.4 µg/mL
[12]
  Minimal inhibitory concentration: 1 µg/mL
[13]; [18]
  Minimal inhibitory concentration: 1.56 µg/mL

## LQRQYQQCQGRCQEQQQGQREQQQCQRKCWEQYKEQERGEHENYHNHKKNRSEEEEGQQR (cysteines drawn unpaired) [SEQ ID No 7]
[2]
  Minimal inhibitory concentration: 10.68 µg/mL
[9]
  Minimal inhibitory concentration: 13.6 µg/mL
[10]
  Minimal inhibitory concentration: 13.6 µg/mL
[3]
  Minimal inhibitory concentration: 12.7 µg/mL
[4]
  Minimal inhibitory concentration: 23.5 µg/mL
[5]
  Minimal inhibitory concentration: 12.75 µg/mL
[6]
  Minimal inhibitory concentration: 12.75 µg/mL
[7]
  Minimal inhibitory concentration: 9.4 µg/mL
[8]
  Minimal inhibitory concentration: 4.7 µg/mL
[13]
  Minimal inhibitory concentration: 9.45 µg/mL

## YERDPRQQYEQCQRRCESEATEEREQEQCEQRCEREYKEQQRQQEEE (cysteines drawn unpaired) [SEQ ID No 6]
[2]
  Minimal inhibitory concentration: 13.12 µg/mL
[9]
  Minimal inhibitory concentration: 13 µg/mL
[10]
  Minimal inhibitory concentration: 3.25 µg/mL
[3]
  Minimal inhibitory concentration: 14.5 µg/mL
[4]
  Minimal inhibitory concentration: 27.2 µg/mL
[5]
  Minimal inhibitory concentration: 13.1 µg/mL
[6]
  Minimal inhibitory concentration: 14.5 µg/mL
[7]
  Minimal inhibitory concentration: 37.9 µg/mL
[8]
  Minimal inhibitory concentration: 4.8 µg/mL
[13]
  Minimal inhibitory concentration: 7.9 µg/mL

B1: SEQ ID No 1: Antimicrobial peptide from the N-terminal region of Theobroma cacao (CCN-51) vicilin protein, 15 kDa spot; natural, recombinant or synthetic (peptide)
chain: YGRKQYERDPRQQYEQCQRRCESEATEEREQEQCEQRCEREYKEQQRQQEEELQRQYQQCQGRCQEQQQGQREQQQCQRKCWEQYKEQERGEHENYHNHKKN
modifications: Theobroma cacao
notes: Antimicrobial peptide from the N-terminal region of Theobroma cacao (CCN-51) vicilin protein, 15 kDa spot; natural, recombinant or synthetic
[11]; control, milk-free (and reference drug)
  Minimal inhibitory concentration: 3.1 µg/mL
[11]; control, milk-free (and reference drug), listed as SEQ ID N° 1
  Minimal inhibitory concentration: 3.2 µg/mL
[11]; peptide 1 mg/ml mixed with 3.5% fat cow milk in equal parts, overnight 37° C., supernatant
  Minimal inhibitory concentration: 80 µg/mL
[2]; [19]
  Minimal inhibitory concentration: 1.9 µg/mL
[9]; [16]
  Minimal inhibitory concentration: 3.1 µg/mL
[10]; [17]
  Minimal inhibitory concentration: 3.1 µg/mL
[3]; [20]
  Minimal inhibitory concentration: 1.6 µg/mL
[4]; [21]
  Minimal inhibitory concentration: 10.25 µg/mL
[5]; [22]
  Minimal inhibitory concentration: 0.4 µg/mL
[6]; [23]
  Minimal inhibitory concentration: 6.25 µg/mL
[7]; [24]
  Minimal inhibitory concentration: 3.75 µg/mL
[14]
  efficiency compared with the prior art peptides: more efficient than the prior art peptides
[8]; [25]
  Minimal inhibitory concentration: 5 µg/mL
[12]
  Minimal inhibitory concentration: 3.1 µg/mL
[13]; [18]
  Minimal inhibitory concentration: 1.1 µg/mL
[15]; control conditions
  concentration inhibiting bacteria growth (MIC): 15 µg/mL
[15]; peptide (8 mg/ml) mixed with equal volume of soil slurry, overnight 28° C.
  concentration inhibiting bacteria growth (MIC): 25 µg/mL
[1]; control, no bodily fluid (and reference drug)
  Minimal inhibitory concentration: 0.4 µg/mL
[1]; peptide 1 mg/ml mixed with human urine in equal parts, overnight 30° C., supernatant
  Minimal inhibitory concentration: 5 µg/mL
[1]; peptide 1 mg/ml mixed with sheep blood in equal parts, overnight 30° C., plasma supernatant
  Minimal inhibitory concentration: 25 µg/mL
[1]; peptide 1 mg/ml mixed with synthetic urine in equal parts, overnight 30° C., supernatant
  Minimal inhibitory concentration: 2 µg/mL

B2: SEQ ID No 2: Cocoa vicilin-derived antimicrobial peptide of the invention, recombinant or synthetic, mass of 15.3 kDa (peptide)
chain: YGRKQYERDPRQQYEQCQRRCESEATEEREQEQCEQRCEREYKEQQRQQEEELQRQYQQCQGRCQEQQQGQREQQQCQRKCWEQYKEQERGEHENYHNHK
modifications: peptide according to an embodiment of the invention
notes: Cocoa vicilin-derived antimicrobial peptide of the invention, recombinant or synthetic, mass of 15.3 kDa
[2]; [19]
  Minimal inhibitory concentration: 4.5 µg/mL
[9]; [16]
  Minimal inhibitory concentration: 7.1 µg/mL
[10]; [17]
  Minimal inhibitory concentration: 7.1 µg/mL
[3]; [20]
  Minimal inhibitory concentration: 3.1 µg/mL
[4]; [21]
  Minimal inhibitory concentration: 19.3 µg/mL
[5]; [22]
  Minimal inhibitory concentration: 3.1 µg/mL
[6]; [23]
  Minimal inhibitory concentration: 6.25 µg/mL
[7]; [24]
  Minimal inhibitory concentration: 6.25 µg/mL
[14]
  efficiency compared with the prior art peptides: more efficient than the prior art peptides
[8]; [25]
  Minimal inhibitory concentration: 6.25 µg/mL
[12]
  Minimal inhibitory concentration: 6.2 µg/mL
[13]; [18]
  Minimal inhibitory concentration: 1.9 µg/mL
